Measurements as given in PMC7187253 (Clinical Pharmacology in Drug Development, 2019).
Read-outs that look alike come from different tables or passages of the source.

Key:
[1] = type: in vivo, human; conditions: for MR (metabolite‐to‐parent ratio for AUC24), geometric mean (%CV): corrected for molecular weight; for Cmin, geometric mean (%CV): 0‐24 h after last dose; for AUC(0-t): AUClast
[2] = tested on: extracellular 5‐HT levels; conditions: compared with sertraline; cited from earlier work
[3] = tested on: cardiac repolarization in healthy subjects; assay: PK/PD exposure‐response analysis of QTcF; conditions: for Estimated slope of the regression for ∆QTcF versus plasma concentration: separate PK/PD models for sertraline and N‐desmethylsertraline concentration
healthy subjects = assay: Safety assessments; type: in vivo, human; conditions: for Fatigue / Headache / Insomnia / TEAEs considered treatment related / Total TEAEs reported / Subjects reporting ≥1 AE: during treatment period; for Subjects reporting ≥1 AE: sertraline n = 52, moxifloxacin n = 50
[4] = cited from earlier work
[5] = tested on: cardiac repolarization in healthy subjects
Kv1.5 = conditions: Chinese hamster ovary cells; cited from earlier work
[6] = ref Pfizer Inc, data on file, cited from earlier work
CYP2D6 = conditions: cited from earlier work
CYP1A2 = conditions: cited from earlier work
CYP2C9 = conditions: cited from earlier work
CYP2C19 = conditions: cited from earlier work
QTc interval = conditions: cited from earlier work
[7] = cited from earlier work; remark: listed apart in the source
[8] = Day 1, sertraline 50 mg single dose
[9] = Day 1, sertraline 50 mg single dose, plasma, healthy subjects
[10] = Day 14, sertraline 400 mg/day multiple dose
[11] = human, plasma, 400 mg/day, arithmetic mean ± SD, Day 14, sertraline 400 mg/day multiple dose
[12] = 1 h after dosing on day 14, sertraline 400 mg/day
[13] = 2 h after dosing on day 14, sertraline 400 mg/day
[14] = 3 h after dosing on day 14, sertraline 400 mg/day
[15] = 4 h after dosing on day 14, sertraline 400 mg/day
[16] = 5 h after dosing on day 14, sertraline 400 mg/day
[17] = 6 h after dosing on day 14, sertraline 400 mg/day
[18] = 8 h after dosing on day 14, sertraline 400 mg/day
[19] = 12 h after dosing on day 14, sertraline 400 mg/day
[20] = 24 h after dosing on day 14, sertraline 400 mg/day
[21] = categorical analysis of maximum postdose QTcF
[22] = patients admitted for sertraline overdose (>200 mg)

In the case of `N[C@H]1CC[C@@H](c2ccc(Cl)c(Cl)c2)c2ccccc21` [N‐desmethylsertraline], the “AUC24, arithmetic mean ± SD” value [1, 8] is reported as 79.03 ± 19.199 ng·h/mL, the “AUC24, geometric mean (%CV)” value [1, 8] is reported as 76.87 (24) ng • h/mL and the “Cmax, arithmetic mean ± SD” value [1, 8] is reported as 4.428 ± 1.3189 ng/mL. The “MR (metabolite‐to‐parent ratio for AUC24), arithmetic mean ± SD” value [1, 8] was 0.5493 ± 0.1743, the “tmax, median (range)” value [1, 8] was 12.0 (5.00‐23.9) h and the “Cmax, geometric mean (%CV)” value [1, 9] was 4.269 (27) ng/mL. The “MR (metabolite‐to‐parent ratio for AUC24), geometric mean (%CV)” value [1, 8] was 0.5222 (34), the “Cmax, geometric mean (%CV)” value ([1]; Day 14, sertraline 400 mg/day (200 mg BID, only morning dose on day 14), multiple dose, plasma) was 249.6 (23) ng/mL and the “AUC24, arithmetic mean ± SD” value [1, 10] was 5342 ± 1109.5 ng·h/mL. For the same molecule, the “AUC24, geometric mean (%CV)” value [1, 10] was 5227 (22) ng • h/mL, the “AUClast, arithmetic mean ± SD” value [1, 10] was 13500 ± 3225.2 ng·h/mL and the “AUClast, geometric mean (%CV)” value [1, 10] was 13110 (25) ng • h/mL. The “Cmin, arithmetic mean ± SD” value [1, 10] was 188.4 ± 39.567 ng/mL, the “MR (metabolite‐to‐parent ratio for AUC24), arithmetic mean ± SD” value [1, 10] was 1.283 ± 0.3075 and the “tmax, median (range)” value [1, 10] was 8.00 (1.07‐12.1) h. For the same molecule, the “Cmin, geometric mean (%CV)” value [1, 10] was 184.1 (23) ng/mL, the “MR (metabolite‐to‐parent ratio for AUC24), geometric mean (%CV)” value [1, 10] was 1.248 (24) and the “Effect on extracellular 5‐HT levels” value [2] was “lack of effect”. The “Estimated slope of the regression for ∆QTcF versus plasma concentration” value [3] was 0.036 ms/ng/mL.
`COc1c(N2C[C@@H]3CCCN[C@@H]3C2)c(F)cc2c(=O)c(C(=O)O)cn(C3CC3)c12` [moxifloxacin] gave a Fatigue (healthy subjects) of 7 subjects, a Headache (healthy subjects) of 11 subjects and an Insomnia (healthy subjects) of 11 subjects. The “TEAEs considered treatment related” value (healthy subjects) was 92, the “Total TEAEs reported” value (healthy subjects) was 105 and the “Subjects reporting ≥1 AE” value (healthy subjects) was 42 subjects. The Population tmax [4] was 3 h.
With `CN[C@H]1CC[C@@H](c2ccc(Cl)c(Cl)c2)c2ccccc21` [sertraline] the “Cmax, geometric mean (%CV)” value [1, 9] was 11.39 (37) ng/mL, the “Cmin, arithmetic mean ± SD” value [1, 10] was 146.1 ± 57.093 ng/mL and the “Rac (observed accumulation ratio of AUC), arithmetic mean ± SD” value [1, 10] was 3.71 ± 0.82. The “Rac (observed accumulation ratio of AUC), geometric mean (%CV)” value [1, 10] was 3.62 (22.79), the “Cmin, geometric mean (%CV)” value [1, 10] was 135.3 (43) ng/mL and the Tmax ([1]; human, plasma, 50 mg) was 5.06 h. For the same molecule, the AUC ([1]; human, plasma, 50 mg, AUC24, arithmetic mean ± SD, Day 1, sertraline 50 mg single dose) was 162 ± 50.3 ng·h/mL, the AUC ([1]; human, plasma, 50 mg, AUC24, geometric mean (%CV), Day 1, sertraline 50 mg single dose) was 154 ng·h/mL and the Cmax ([1]; human, plasma, 50 mg, arithmetic mean ± SD, Day 1, sertraline 50 mg single dose) was 12.1 ± 4.34 ng/mL. The Cmax ([1]; human, plasma, 50 mg, geometric mean (%CV), Day 1, sertraline 50 mg single dose, plasma, healthy subjects) was 11.4 ng/mL, the concentration at 4 h ([1]; human, plasma, 400 mg/day) was 213 ng/mL and the AUC ([1]; human, plasma, 400 mg/day, AUC24, arithmetic mean ± SD, Day 14, sertraline 400 mg/day multiple dose) was 4650 ± 1580 ng·h/mL. The AUC ([1]; human, plasma, 400 mg/day, AUC24, geometric mean (%CV), Day 14, sertraline 400 mg/day multiple dose) was 4390 ng·h/mL, the AUC(0-t) [1, 11] was 9190 ± 3720 ng·h/mL and the AUC(0-t) ([1]; human, plasma, 400 mg/day, geometric mean (%CV), Day 14, sertraline 400 mg/day multiple dose) was 8490 ng·h/mL. For the same molecule, the Cmax [1, 11] was 246 ± 80.6 ng/mL, the Cmax ([1]; human, plasma, 400 mg/day, geometric mean (%CV), Day 14, sertraline 400 mg/day (200 mg BID, only morning dose on day 14), multiple dose, plasma) was 234 ng/mL and the Fatigue (healthy subjects) was 17 subjects. For the same molecule, the Headache (healthy subjects) was 18 subjects, the Insomnia (healthy subjects) was 22 subjects and the “TEAEs considered treatment related” value (healthy subjects) was 238. The “Total TEAEs reported” value (healthy subjects) was 251, the “Subjects reporting ≥1 AE” value (healthy subjects) was 45 subjects and the “Severe AE / SAE (psychiatric decompensation)” value (healthy subjects; subject withdrawn, resolved the same day) was “single severe AE”. The “Discontinued study treatment due to an AE (asthma)” value (healthy subjects; while receiving sertraline treatment) was “One additional subject”, the “QTcF, Least Squares Difference (Sertraline‐Placebo)” value (“QTcF, Least Squares Difference” for short) [5, 12] was 6.957 ms and the “QTcF, Least Squares Mean” value [5, 12] was 414.299 ms. The “QTcF, Least Squares Difference” value [5, 13] was 7.851 ms, the “QTcF, Least Squares Mean” value [5, 13] was 415.625 ms and the “QTcF, Least Squares Difference” value [5, 14] was 7.824 ms. The “QTcF, Least Squares Mean” value [5, 14] was 416.465 ms, the “QTcF, Least Squares Difference” value [5, 15] was 9.651 ms and the “QTcF, Least Squares Mean” value [5, 15] was 418.252 ms. For the same molecule, the “QTcF, Least Squares Difference” value [5, 16] was 7.377 ms, the “QTcF, Least Squares Mean” value [5, 16] was 411.285 ms and the “QTcF, Least Squares Difference” value [5, 17] was 6.511 ms. The “QTcF, Least Squares Mean” value [5, 17] was 408.985 ms, the “QTcF, Least Squares Difference” value [5, 18] was 5.597 ms and the “QTcF, Least Squares Mean” value [5, 18] was 408.732 ms. The “QTcF, Least Squares Difference” value [5, 19] was 5.677 ms, the “QTcF, Least Squares Mean” value [5, 19] was 411.019 ms and the “QTcF, Least Squares Difference” value [5, 20] was 7.346 ms. For the same molecule, the “QTcF, Least Squares Mean” value [5, 20] was 414.294 ms, the “Time of longest placebo‐adjusted QTc interval” value ([5]; after dosing on day 14, sertraline 400 mg/day) was 4 h and the “Subjects with absolute QTcF interval of ≥480 milliseconds” value [5, 21] was “no participant”. For the same molecule, the “Subjects with maximum increase from baseline in QTcF of ≥60 milliseconds” value [5, 21] was “no participant”, the “Predose (time 0) QTcF, mean (standard deviation)” value ([5]; day 14 of sertraline treatment period) was 414.9 (14.89) milliseconds and the “Effect on Kv1.5” value (Kv1.5) was “voltage‐dependent inhibition”. The “Increase in exposure with hepatic impairment” value ([4]; hepatic impairment) was 1.7 fold, the “Cmax at 400 mg/day relative to Cmax at 200 mg/day” value ([6]; day 14) was “approximately 3 times” and the “Mean Cmax” value ([6]; sertraline 400 mg/day, day 14, healthy subjects) was 282 ng/mL. The CYP2D6 inhibitor class (CYP2D6) was “weak to moderate inhibitor”, the CYP1A2 inhibitor class (CYP1A2) was “weak inhibitor” and the CYP2C9 inhibitor class (CYP2C9) was “weak inhibitor”. For the same molecule, the CYP2C19 inhibitor class (CYP2C19) was “weak inhibitor”, the “Incidence of maximum QTcB interval prolongation (males >450 ms; females >460 ms)” value (QTc interval; ECG database, dosing and concomitant medications unknown) was 7.9% and the “Increase in QT/QTc interval” value (QTc interval; clinical trials, sertraline 50‐200 mg/day, major depression) was “No statistically significant increase”. The “Mean increase in QTc interval compared with placebo” value (QTc interval; meta‐analysis of study‐level trial data, sertraline 50‐200 mg/day) was 3.0 millisecond, the “Incidence of QTc interval >500 ms” value (QTc interval; [22]) was 6% and the “Incidence of QTc interval greater than 440 ms” value (QTc interval; [22]) was 40%. For the same molecule, the “Mean QTcF increase” value (QTc interval; prospective, cross‐sectional population‐based study (n = 42)) was 1.7 milliseconds, the Maximum tolerated dose [7] was 400 mg/day and the “Predicted mean ∆∆QTcF” value ([3]; at mean supratherapeutic Cmax of 234 ng/mL on day 14) was 8.93 milliseconds. For the same molecule, the “Predicted mean ∆ΔQTcF (change from baseline QTcF adjusted for placebo)” value ([3]; at mean therapeutic maximum plasma sertraline concentration of 86 ng/mL (200 mg/day)) was 3.57 milliseconds, the “Predicted mean ∆∆QTcF” value ([3]; at peak plasma sertraline concentration 223.5 ng/mL) was 8.55 milliseconds and the “Estimated slope of the regression for ∆QTcF versus plasma concentration” value [3] was 0.036 ms/ng/mL.
